Series [1] relates to GSH in mature human erythrocytes. Put plainly: Intracellular GSH measurement by HPLC (GS-NEM conjugate). The format is cell-based. The settings on record: for GSH depletion / GSH: 24 h; for GSH: 0.6% Hct, DMSO control 7.52; for IC50: Homo sapiens, Erythrocyte, 24 h in Ringer solution, 0.6% Hct (mean GSH 15 μM), read-out: IC50 (GSH depletion). Here is the method: (§1) DMSO-treated erythrocytes served as negative controls. After incubation, erythrocytes were treated with 0.6 mM (final concentration) NEM prepared as a 310 mM stock in H2O. NEM functioned as the best alkylating agent for GSH conjugation to prevent sample manipulation-induced oxidation of GSH. After a 2-min incubation at room temperature, samples were centrifuged at 210 g for 10 min in order to obtain RBC pellets. These were immediately stored at −20 °C until GSH and GSSG analyses were performed. All measurements were carried out within one week after the treatment. GSH and GSSG were measured in the clear supernatant obtained by treatment of 0.1 ml RBCs with 0.12 ml 15% (w/v) trichloroacetic acid. GSH analysis was carried out by high-performance liquid chromatography (HPLC), as recently reported. […] GSSG was measured photometrically by the GSH recycling method with slight modifications. For hemoglobin determination, one aliquot of the RBC suspensions (10 μl) was hemolysed by 1:200 dilution with H2O[62]. The HPLC analyses were carried out with an Agilent series 1100 instrument (Agilent Technologies, Milan, Italy). The photometric analyses were performed with a Jasco V-530 instrument (Jasco Europe s.r.l. Cremella, Como, Italy).

The next series deals with T1, 6PGDH (Homo sapiens, UniProt P52209).
T1 construct: endogenous in cells; host or cells: human erythrocytes (RBC concentrates), treated 24 h, then lysed
T1 sequence (P52209 2-483 limits assumed): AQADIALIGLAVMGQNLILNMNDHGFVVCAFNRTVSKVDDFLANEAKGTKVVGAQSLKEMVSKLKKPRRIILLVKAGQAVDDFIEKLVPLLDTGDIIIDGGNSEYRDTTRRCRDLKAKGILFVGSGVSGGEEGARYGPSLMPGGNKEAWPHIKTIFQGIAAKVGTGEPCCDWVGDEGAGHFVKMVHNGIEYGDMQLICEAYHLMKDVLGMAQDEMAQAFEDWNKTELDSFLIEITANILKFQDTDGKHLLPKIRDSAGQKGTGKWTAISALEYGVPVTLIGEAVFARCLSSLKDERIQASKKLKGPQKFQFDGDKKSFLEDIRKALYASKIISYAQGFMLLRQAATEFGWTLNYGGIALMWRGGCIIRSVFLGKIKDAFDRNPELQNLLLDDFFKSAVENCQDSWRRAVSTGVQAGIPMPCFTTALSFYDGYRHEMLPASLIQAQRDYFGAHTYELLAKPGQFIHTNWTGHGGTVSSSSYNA
As to the kind of experiment: 6PGDH activity in lysates of inhibitor-treated erythrocytes. The format is cell-based. The settings on record: at the concentrations used, data not shown. Here is the method: (§2) DMSO-treated erythrocytes served as negative controls. Determinations of the enzymatic activities of G6PDH, 6PGDH and GR (+/− FAD) were performed in leukocytes- and platelets-free erythrocyte lysates according to standard biochemical procedures. After 10 min incubation (20 min for GR) at 37 °C the reaction was started by adding substrate or co-factor. Changes in absorbance at 340 nm were recorded at 1 min intervals for 20 min (Infinite 200 Nanoquant spectrophotometer; Tecan, Männedorf, Switzerland). Specific activity of all enzymes was expressed as U/g Hb. The combined activity of G6PDH and 6PGDH was determined by estimating the conversion of NADP^+ to NADPH in the presence of glucose-6-phosphate (600 μM). The activity of 6PGDH alone was then measured by the conversion of NADP^+ to NADPH in the presence of 6-phosphogluconate (600 μM). Finally, G6PDH activity was calculated by subtracting 6PGDH activity from total dehydrogenase activity.

Series [2] relates to mature human erythrocytes. Put plainly: Forward scatter (FSC, GeoMean) by flow cytometry, cell volume / cell shrinkage. It is filed as cell-based. The settings on record: for GeoMean: Hct 0.6%; for decrease of cell volume (forward scatter): increasing concentrations, 24 h and 48 h, 0.4% Hct. The procedure:
After incubation, 2·10^6 RBCs were washed in 500 μl Annexin-binding buffer. RBC pellets were then vortexed gently to get a homogenous cell suspension. To detect phosphatidylserine (PS) on the outer leaflet of the plasma membrane, these cells were subsequently stained with 32 μl Annexin V-FLUOS at a 1:33 dilution and mixed gently on a vortex mixer. After 20 min incubation in the dark at room temperature, 200 μl of Annexin-binding buffer was added to each sample, thoroughly vortexed to achieve single cell suspensions, and analysed by flow cytometry on a FACS-Calibur (Becton Dickinson, Heidelberg, Germany). Cell volume was determined by forward scatter (FSC), and Annexin V-FLUOS binding was measured in the FL1-channel.

The next series concerns human erythrocytes. As to the kind of experiment: Hemolysis (hemoglobin in supernatant, 405 nm). The settings on record: 24 h / 48 h, compared with Bay 11–7082.
For the next series, the system named is Trypanosoma brucei. As to the kind of experiment: In vitro growth inhibition of parasite culture (own unpublished data). It is filed as cell-based. The settings on record: preliminary work.
The target in series [3] is T2, glutathione reductase (GR) (Homo sapiens, UniProt P00390).
T2 construct: endogenous in cells; host or cells: human erythrocytes (RBC concentrates), treated 24 h, then lysed
T2 sequence (P00390 1-479 isoform P00390-2): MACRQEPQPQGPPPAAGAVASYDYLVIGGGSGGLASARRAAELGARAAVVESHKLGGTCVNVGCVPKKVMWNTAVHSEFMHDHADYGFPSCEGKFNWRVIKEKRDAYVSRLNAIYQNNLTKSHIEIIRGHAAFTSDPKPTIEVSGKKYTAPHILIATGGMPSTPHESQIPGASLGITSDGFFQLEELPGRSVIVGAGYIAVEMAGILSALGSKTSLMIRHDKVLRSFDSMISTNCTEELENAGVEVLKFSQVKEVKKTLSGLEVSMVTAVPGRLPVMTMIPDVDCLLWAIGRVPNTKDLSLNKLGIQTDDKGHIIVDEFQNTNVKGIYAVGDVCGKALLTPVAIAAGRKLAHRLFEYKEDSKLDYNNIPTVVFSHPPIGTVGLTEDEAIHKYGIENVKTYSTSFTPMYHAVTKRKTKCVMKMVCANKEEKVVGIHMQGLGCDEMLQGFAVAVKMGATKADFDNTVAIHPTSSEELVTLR
As to the kind of experiment: GR activity (+/- FAD) in lysates of inhibitor-treated erythrocytes. The format is cell-based. The settings on record: 24 h. The procedure:
as §2

Series [4] deals with mature human erythrocytes. Put plainly: MCV and MCHC of inhibitor-treated erythrocytes (ADVIA 120 Hematology System). The format is cell-based. The settings on record: Hct 0.6%. Here is the method: Erythrocyte concentrates (0.6% Hct), suspended in 30 ml Ringer solution were treated with Bay 11–7082 (20 μM), parthenolide (50 μM) and DMF (140 μM) for 24 h, respectively. DMSO (0.2% (v/v))-treated erythrocytes served as negative controls. After incubation, samples were centrifuged at 210 g for 10 min at room temperature in order to obtain RBC pellets. Ionomycin (0.25 μM)-treated erythrocytes served as positive controls, and were first incubated in Ringer solution in the absence of ionomycin for 21.5 h. Subsequently, the cells were treated with ionomycin for 2.5 h, and the MCV and MCHC values were determined. The MCV and MCHC analysis was carried out with an ADVIA 120 Hematology System Instrument (Siemens, Germany).

Series [5] deals with T3, glucose-6-phosphate dehydrogenase (G6PDH) (Homo sapiens, UniProt P11413).
T3 construct: endogenous in cells; host or cells: human erythrocytes (RBC concentrates), treated 24 h, then lysed
T3 sequence (P11413 2-515 limits assumed): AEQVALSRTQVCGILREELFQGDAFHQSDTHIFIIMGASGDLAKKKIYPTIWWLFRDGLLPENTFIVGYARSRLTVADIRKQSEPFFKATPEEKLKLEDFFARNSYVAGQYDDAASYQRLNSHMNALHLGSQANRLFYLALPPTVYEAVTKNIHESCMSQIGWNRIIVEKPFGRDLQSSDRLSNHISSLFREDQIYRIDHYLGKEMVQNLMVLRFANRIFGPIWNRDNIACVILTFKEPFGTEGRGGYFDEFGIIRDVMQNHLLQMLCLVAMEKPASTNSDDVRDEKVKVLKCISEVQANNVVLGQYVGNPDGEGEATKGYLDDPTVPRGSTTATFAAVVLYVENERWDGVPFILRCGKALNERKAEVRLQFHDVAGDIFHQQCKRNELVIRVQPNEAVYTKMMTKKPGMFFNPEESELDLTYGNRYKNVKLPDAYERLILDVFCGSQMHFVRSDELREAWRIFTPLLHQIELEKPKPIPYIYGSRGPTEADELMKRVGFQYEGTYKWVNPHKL
As to the kind of experiment: G6PDH activity in lysates of inhibitor-treated erythrocytes. The format is cell-based. The settings on record: for EC50: read-out: EC50 (inhibition of G6PDH activity). The procedure:
as §2

The subject of series [6] is GSSG in mature human erythrocytes. Put plainly: Intracellular GSSG measurement, photometric GSH recycling method. It is filed as cell-based. The settings on record: 24 h, 0.6% Hct, DMSO control 0.06. The procedure: as §1
The mark [7] stands for this setting: 140 μM, 24 h incubation, blood group A Rhesus +.
Setting [8] is: 140 μM, 24 h incubation, blood group B Rhesus +.
[9] abbreviates: 140 μM, 24 h incubation, blood group O Rhesus +.
[10] abbreviates: erythrocytes treated 24 h, 0.6% Hct.
[11] abbreviates: 0.25 μM, 2.5 h incubation (after 21.5 h in Ringer), positive control, blood group A Rhesus +.
The mark [12] stands for this setting: 0.25 μM, 2.5 h incubation (after 21.5 h in Ringer), positive control, blood group B Rhesus +.
Setting [13] is: 0.25 μM, 2.5 h incubation (after 21.5 h in Ringer), positive control, blood group O Rhesus +.
Where [14] appears, read: 50 μM, 24 h incubation, blood group A Rhesus +.
Where [15] appears, read: 50 μM, 24 h incubation, blood group B Rhesus +.
Setting [16] is: 50 μM, 24 h incubation, blood group O Rhesus +.

Structures can show the parent of a compound that is named as a salt.

The values that follow come from publication PMC4926109, “Pharmacological targeting of glucose-6-phosphate dehydrogenase in human erythrocytes by Bay 11–7082, parthenolide and dimethyl fumarate” (Scientific Reports, 2016).

As usually defined, the IC50 is the midpoint of a concentration-inhibition curve. The term inhibition denotes the drop in the measured response relative to a control, in per cent. A higher inhibition goes with a response far below the control. The term EC50 denotes the concentration that produces a half-maximal response.

With `COC(=O)/C=C/C(=O)OC` [DMF, dimethyl fumarate], the GSH depletion result in [1] (140 μM) is “almost totally deplete GSH”. In [1] (140 μM), this compound came in with a GSH of 0.17 nmol/mg Hb. Besides, the half-maximal inhibitory concentration (IC50) in [1] came to 20 µM. Besides, at 6PGDH, the “inhibitory effect on 6PGDH activity” value is recorded as “did not observe any inhibitory effect”. In addition, the GeoMean in series [2] (setting [7]) is 426.7; in series [2] (setting [8]), 427.3; in [2] (setting [9]), 448. For the same compound, in [2], the “decrease of cell volume (forward scatter)” value is listed as “to a lesser extent”. The “ratio of hemolysis to eryptosis” value in the series with human erythrocytes is “even lower as compared with Bay 11–7082”. Moreover, the “in vitro growth inhibitory effect on parasites' culture” value with Trypanosoma brucei is reported as “significant in vitro growth inhibitory effect”. This compound also registered an inhibition at 140 µM in series [3] (140 μM) of 60%. Further, the values for the MCHC in series [4] (setting [7]), in [4] (setting [8]) and in series [4] (setting [9]) were 33.3 g/dL, 33.5 g/dL and 32.9 g/dL, respectively. Besides, the values for the MCV in series [4] (setting [7]), in series [4] (setting [8]) and in series [4] (setting [9]) were 85.6 fL, 83.5 fL and 88.2 fL, respectively. The G6PDH inactivation in series [5] (140 μM, 24 h) is listed as ~ 50%. Moreover, the EC50 in [5] (setting [10]) was 140 µM. In [6] (140 μM), this compound yielded a GSSG of 0.03 nmol/mg Hb.
`C[C@H](CCC(=O)O)C[C@H](C)C[C@H](C)C(=O)/C=C(\O)[C@H](C)C[C@H](C)C/C=C/[C@@H](C)[C@@H](O)[C@@H](C)[C@@H](O)C[C@@H]1CC[C@@](C)([C@H]2CC[C@@](C)([C@@H](C)O)O2)O1` [Ionomycin]: the GeoMean in series [2] (setting [11]) is 209.3; in [2] (setting [12]) it was 166.2; in series [2] (setting [13]), 186.3. In addition, the MCHC was determined as 53 g/dL in series [4] (setting [11]), 50.4 g/dL in series [4] (setting [12]) and 55.7 g/dL in [4] (setting [13]). Besides, the MCV came to 73.3 fL in series [4] (setting [11]), 72.2 fL in series [4] (setting [12]) and 75.8 fL in series [4] (setting [13]).
As to `C=C1C(=O)O[C@H]2[C@H]1CC/C(C)=C/CC[C@@]1(C)O[C@@H]21` [Parthenolide, parthenolide], in series [1] (50 μM), the GSH depletion result is “almost totally deplete GSH” and the GSH came out at 0.30 nmol/mg Hb. In [1], the IC50 was 10 µM. The “inhibitory effect on 6PGDH activity” value against 6PGDH was “did not observe any inhibitory effect”. In [2] (setting [14]), the GeoMean amounted to 425.24. Further, in series [2] (setting [15]), the GeoMean was determined as 418.8. For the same compound, in [2] (setting [16]), the GeoMean turned out to be 451.5. In addition, the “decrease of cell volume (forward scatter)” value in series [2] is recorded as “to a lesser extent”. Also, the “ratio of hemolysis to eryptosis” value in the series with human erythrocytes was “even lower as compared with Bay 11–7082”. In addition, the “in vitro growth inhibitory effect on parasites' culture” value in the series on Trypanosoma brucei is “significant in vitro growth inhibitory effect”. Further, the “ability to inhibit GR activity” value in series [3] (parthenolide 1–50 μM) was “Unlike parthenolide, only Bay 11–7082 and DMF were able to inhibit the GR activity”. Further, in [4] (setting [14]), the MCHC is 33.5 g/dL and the MCV came to 84.1 fL. Also, in [4] (setting [15]), the MCHC is reported as 34.4 g/dL and the MCV stood at 82.2 fL. In addition, in series [4] (setting [16]), the MCHC was 33.8 g/dL and the MCV came to 87 fL. Moreover, in series [5] (50 μM, 24 h), the G6PDH inhibition result was “total G6PDH inhibition” and testing at 50 µM gave an inhibition of 100%. Besides, in series [5] (setting [10]), the EC100 (inhibition of G6PDH activity) worked out at 50 µM and the half-maximal effective concentration (EC50) turned out to be 12 µM. The GSSG in [6] (50 μM) is given as 0.03 nmol/mg Hb.
